According to US20260206763A1, “AMIDE COMPOUNDS OR SALTS THEREOF, BACTERICIDAL AGENTS FOR AGRICULTURE AND HORTICULTURE CONTAINING SAID COMPOUNDS, AND METHOD OF USING SAME” (NIHON NOHYAKU CO., LTD., priority 2022, published 2026):

Legend:
Format in all cases: cell-based
[1] = test system: Botryosphaeria berengeriana
Sclerotinia sclerotirum = test: microbe, parasite or virus in culture; conditions: read-out: median effective concentration (EC50), mycelium growth inhibitory activity
Cochliobolus miyabeanus = test: Antifungal activity test, mycelium growth inhibition on PDA medium; conditions: Bipolaris oryzae, read-out: median effective concentration (EC50), mycelium growth inhibitory activity
Botrytis cinerea = test: microbe, parasite or virus in culture; conditions: read-out: median effective concentration (EC50), mycelium growth inhibitory activity
Fusarium graminearum = test: microbe, parasite or virus in culture; conditions: read-out: median effective concentration (EC50), mycelium growth inhibitory activity

| SMILES | median effective concentration (EC50), spore germination inhibitory activity [1] [ppm] | EC50 (Sclerotinia sclerotirum) [µg/mL] | EC50 (Cochliobolus miyabeanus) [µg/mL] | EC50 (Botrytis cinerea) [µg/mL] | EC50 (Fusarium graminearum) [µg/mL] |
| --- | --- | --- | --- | --- | --- |
| O=C(NCc1ccccn1)C1(c2ccc(C(F)(F)F)cc2)CC1(Cl)Cl (centres unmarked) [I-A-36] | ≤ 200 | – | – | – | – |
| O=C1c2ccccc2COc2ccc(C3(C(=O)NCc4ccccn4)CC3(Cl)Cl)cc21 (centres unmarked) [I-A-78] | – | ≤ 200 | ≤ 200 | ≤ 200 | – |
| CC(C)(C)c1ccc(C2(C(=O)NCc3ccccn3)CC2(Cl)Cl)cc1 (centres unmarked) [I-A-101] | – | ≤ 200 | ≤ 200 | ≤ 200 | ≤ 200 |
| O=C(NCc1ccccn1)C1(c2ccc(-c3noc(C(F)(F)F)n3)cc2)CC1(Cl)Cl (centres unmarked) [I-A-132] | – | ≤ 200 | ≤ 200 | ≤ 200 | ≤ 200 |
| O=C(NCc1ccccn1)C1(c2ccc(N=C(c3ccccc3)c3ccccc3)cc2)CC1(Cl)Cl (centres unmarked) [I-A-159] | – | ≤ 200 | ≤ 200 | ≤ 200 | – |
| Cc1ccc(CNC(=O)C2(c3ccc(I)cc3)CC2(Cl)Cl)nc1 (centres unmarked) [I-A-257] | – | ≤ 200 | ≤ 200 | ≤ 200 | ≤ 200 |
| Cc1ccc(CNC(=O)C2(c3ccc(-c4ccccc4F)cc3)CC2(Cl)Cl)nc1 (centres unmarked) [I-A-261] | – | ≤ 200 | ≤ 200 | ≤ 200 | ≤ 200 |
| Cc1ccc(CNC(=O)C2(c3ccc(C4=CCCC4)cc3)CC2(Cl)Cl)nc1 (centres unmarked) [I-A-267] | – | ≤ 200 | ≤ 200 | ≤ 200 | ≤ 200 |
| Cc1ccc(CNC(=O)C2(c3ccc(C4=CCCCC4)cc3)CC2(Cl)Cl)nc1 (centres unmarked) [I-A-268] | – | ≤ 200 | ≤ 200 | ≤ 200 | ≤ 200 |
| Cc1ccc(CNC(=O)C2(c3ccc(S(=O)(=O)c4ccccc4)cc3)CC2(Cl)Cl)[n+]([O-])c1 (centres unmarked) [I-A-280] | – | ≤ 200 | ≤ 200 | – | ≤ 200 |
| Cc1ccc(CNC(=O)C2(c3ccc(Oc4nc5ccccc5s4)cc3)CC2(Cl)Cl)nc1 (centres unmarked) [I-A-288] | – | ≤ 200 | ≤ 200 | ≤ 200 | ≤ 200 |
| CC(C)(C)c1ccc(C2(C(=O)N3CCc4cccnc4C3)CC2(Cl)Cl)cc1 (centres unmarked) [I-A-371] | – | ≤ 200 | ≤ 200 | – | ≤ 200 |
